Source: paper PMC3432695 (European journal of medicinal chemistry, 2012)
Converted amounts (≈) assume the structure as drawn. “And” between values parts separate entries of the source, which are not always exact repeats. Equal values may be shown once.

Legend:
Chemical = type: physicochemical; details: for t1/2 PBS: PBS pH 7.4, 37 °C, 2 mM
Stability = type: in vitro ADME, Bovine; details: for t1/2 Bovine serum: 37 °C, 2 mM; for hydrolysis rate in Bovine serum relative to rate in PBS: times faster in Bovine serum than in PBS
Stability in Bovine CSF = type: in vitro ADME; details: for t1/2 Bovine CSF: 37 °C, 2 mM
[1] = Solubility in PBS at pH 5, pH 6 and pH 7.4; type: physicochemical; details: for solubility PBS pH 5: PBS pH 5, 37 °C; for solubility PBS pH 5 / solubility PBS pH 6 / solubility PBS pH 7.4: hydrochloride salts of 12, 15, 18, 21; for solubility PBS pH 6: PBS pH 6, 37 °C; for solubility PBS pH 7.4: PBS pH 7.4, 37 °C; for solubility at 4 h: PBS, 37 °C, thermodynamic from solid
TK1 (+) L929 cells = details: cited from earlier work; for in vitro uptake in TK1 (+) L929 cells relative to TK1 (−) L929 cells: 24 h incubation in compound containing medium; for retention in cells: incubation continued for 12 h in compound free medium
[2] = ref Song et al. 15; cited from earlier work
[3] = ref Song et al. 15; cited from earlier work; remark: listed apart in the source
[4] = cited from earlier work
[5] = system: TK1 (+)- or TK1 (−) L929 tumors; details: intratumoral injection, subcutaneous tumors in nude mice; cited from earlier work
intracranial RG2 glioma = details: cited from earlier work

Compound: 3',5'-Di-L-glutam-5-yl-3-(5-{o-carboran-1-yl}pentan-1-yl)thymidine [Compound 19]
- t1/2 PBS (Chemical): 3.42 ± 0.10 h

Compound: 5'-L-Glutam-5-yl-3-(5-{o-carboran-1-yl}pentan-1-yl)thymidine [Compound 18]
- t1/2 PBS (Chemical): 11.16 ± 0.37 h
- t1/2 Bovine serum (Stability): 0.85 ± 0.12 h
- hydrolysis rate in Bovine serum relative to rate in PBS (Stability): 13.1 times
- t1/2 Bovine CSF (Stability in Bovine CSF): 1.85 ± 0.11 h
- hydrolysis rate in CSF relative to PBS (Stability in Bovine CSF; times higher in Bovine CSF than in PBS): 6 times
- solubility PBS pH 5 [1]: 1.13 g/L and 1.16 ± 0.04 g/L
- solubility PBS pH 6 [1]: 1.13 ± 0.06 g/L
- solubility PBS pH 7.4 [1]: 1.77 ± 0.08 g/L

Compound: 3'-L-Valyl-3-(5-{o-carboran-1-yl}pentan-1-yl)thymidine [Compound 11]
- t1/2 PBS (Chemical): 29.79 ± 0.42 h

Compound: 3-(5-{o-Carboran-1-yl}pentan-1-yl)thymidine [Compound 1]
- solubility PBS pH 5 [1]: 0.003–0.005 g/L
- solubility PBS pH 6 [1]: 0.003–0.005 g/L
- solubility PBS pH 7.4 [1]: 0.003–0.005 g/L
- in vitro uptake in TK1 (+) L929 cells relative to TK1 (−) L929 cells (TK1 (+) L929 cells): 5–10
- retention in cells (TK1 (+) L929 cells): retained only in the former cell line

Compound: 3'-Glycinyl-3-(5-{o-carboran-1-yl}pentan-1-yl)thymidine [Compound 14]
- t1/2 PBS (Chemical): 1.51 ± 0.11 h

Compound: 3'-L-Glutam-5-yl-3-(5-{o-carboran-1-yl}pentan-1-yl)thymidine [Compound 17]
- t1/2 PBS (Chemical): 26.91 ± 0.71 h

Compound: CC(C)[C@H](N)C(=O)OCCOCn1cnc2c(=O)[nH]c(N)nc21 [Compound 4, valacyclovir, reference compound]
- half-life at 2 mM (Chemical; PBS, pH 7.4): 13.6 ± 0.49 h
- half-life at 2 mM (Stability; bovine, bovine serum): 6.2 ± 0.17 h
- hydrolysis rate in Bovine serum relative to rate in PBS (Stability): 2.2 times
- half-life at 2 mM (Stability in Bovine CSF; bovine, bovine CSF): 7.59 ± 0.12 h
- solubility relative to 12 ([1]; PBS pH 5, 6, 7.4): 1.5–3 times
- solubility at 4 h ([1]; pH 5, aqueous buffer): 72.7 ± 0.4 mg/mL (≈ 224 mM)
- solubility at 4 h ([1]; pH 6, aqueous buffer): 13.4 ± 0.26 mg/mL (≈ 41.4 mM)
- solubility at 4 h ([1]; pH 7.4, aqueous buffer): 1.91 ± 0.06 mg/mL (≈ 5.89 mM)
- half-life for the chemical hydrolysis [2]: 17.15 h
- half-life for the hydrolysis in human plasma [3]: 5.2 h
- water solubility relative to parental nucleoside analogue (acyclovir) [4]: about 130 times

Compound: 5'-Glycinyl-3-(5-{o-carboran-1-yl}pentan-1-yl)thymidine [Compound 15]
- t1/2 PBS (Chemical): 0.70 ± 0.04 h
- t1/2 Bovine serum (Stability): 0.69 ± 0.02 h
- hydrolysis rate in Bovine serum relative to rate in PBS (Stability): did not change
- t1/2 Bovine CSF (Stability in Bovine CSF): 0.96 ± 0.04 h
- solubility PBS pH 5 [1]: 10.99 ± 0.20 g/L
- solubility PBS pH 6 [1]: 2.06 ± 0.11 g/L
- solubility PBS pH 7.4 [1]: 0.19 ± 0.01 g/L

Compound: 3-[5-{2-(2,3-dihydroxyprop-1-yl)-o-carboran-1-yl}pentan-1-yl]thymidine [Compound 2]
- solubility PBS pH 5 [1]: 0.007–0.01 g/L
- solubility PBS pH 6 [1]: 0.007–0.01 g/L
- solubility PBS pH 7.4 [1]: 0.007–0.01 g/L
- in vitro uptake in TK1 (+) L929 cells relative to TK1 (−) L929 cells (TK1 (+) L929 cells): 5–10
- retention in cells (TK1 (+) L929 cells): retained only in the former cell line
- boron concentration in TK1 (+) relative to TK1 (−) L929 tumors [5]: ~ 3 times
- survival times relative to rats that received BNCT without compound (intracranial RG2 glioma; intracranial injection prior to BNCT, rats with intracranial RG2 glioma): about 2 times
- pathologic alterations in rat brains (intracranial RG2 glioma; rat, in vivo): no significant pathologic alterations

Compound: 3',5'-Di-glycinyl-3-(5-{o-carboran-1-yl}pentan-1-yl)thymidine [Compound 16]
- t1/2 PBS (Chemical): 0.22 ± 0.03 h

Compound: 5'-Glycinyl-3-[5-(2-{2,3-dihydroxyprop-1-yl}-o-carboran-1-yl)pentan-1-yl]thymidine [Compound 21]
- t1/2 PBS (Chemical): 2.21 ± 0.15 h
- t1/2 Bovine serum (Stability): 1.51 ± 0.04 h
- hydrolysis rate in Bovine serum relative to rate in PBS (Stability): 1.5 times
- t1/2 Bovine CSF (Stability in Bovine CSF): 2.11 ± 0.14 h
- solubility PBS pH 5 [1]: 11.18 ± 0.21 g/L
- solubility PBS pH 6 [1]: 3.60 ± 0.12 g/L
- solubility PBS pH 7.4 [1]: 0.62 ± 0.03 g/L

Compound: 5'-L-Valyl-3-(5-{o-carboran-1-yl}pentan-1-yl)thymidine [Compound 12]
- t1/2 PBS (Chemical): 25.59 ± 0.61 h
- t1/2 Bovine serum (Stability): 22.21 ± 0.52 h
- hydrolysis rate in Bovine serum relative to rate in PBS (Stability): 1.2 times
- t1/2 Bovine CSF (Stability in Bovine CSF): 25.47 ± 0.10 h
- solubility relative to compounds 15 and 21 ([1]; PBS pH 5, 6, 7.4): 1–7 times
- solubility PBS pH 5 [1]: 26.30 ± 0.90 g/L
- solubility PBS pH 6 [1]: 3.70 ± 0.31 g/L
- solubility PBS pH 7.4 [1]: 1.31 ± 0.05 g/L

Compound: 3',5'-Di-L-valyl-3-(5-{o-carboran-1-yl}pentan-1-yl)thymidine [Compound 13]
- t1/2 PBS (Chemical): 12.91 ± 0.17 h
